The values that follow come from a melting point compilation (Tetko et al.; mined from patent text by program, amines drawn as free bases though some values may be those of a salt).

Each structure is given as a SMILES string.

As for `O=C(NCc1ccc(F)cc1)c1ccnc(N2CCN(Cc3ccc(F)cc3)C2=O)c1`, the melting point lay in the range of 173 to 175 °C.
`COc1c(Cl)cc(C(C)(C)N2CC(C)=C(c3ccccc3)C2=O)cc1Cl` came in with a melting point of 136 to 139 °C.
Under `O=C(O)c1cc([N+](=O)[O-])cc2ccc(-c3ccccc3)nc12` stands 268 to 269 °C; under `CCOC(=O)c1c(Oc2cccc(Cl)c2)c2cc(C(c3ccc(Cl)cc3)c3cnc(-c4ccccc4)[nH]3)ccc2[nH]c1=O` (stereo not given), 189 °C; under `CC(C)(C)OC(=O)N1CCC(C#N)(CCl)CC1`, 114 to 116 °C.
For `CC(C)(C)OC(=O)NC(CC(=O)O)c1ccc(Cl)c(Cl)c1` (stereo not given) the value was 128 °C.
For `COC(=O)c1cc(C(=O)c2cccc(Cl)c2)n(C)c1` the value was 127 °C; for `CCCOc1ccc(S(C)(=O)=O)cc1C(=O)O`, 148 to 152 °C.
`COc1nc(C)nc2c1-c1ccc(Cl)cc1C(c1ccccc1F)=NC2` displayed a melting point of 188 to 189 °C.
Under `COC(=O)c1ccc(CC(=O)c2cc(OC)c3c(c2)C(C)(C)CCC3(C)C)cc1` stands 143 to 144 °C; under `FC(F)=C(F)CC(=S)Nc1ccccc1`, 65 to 67 °C; under `Cc1cccc2c1N(CC(=O)N1CC3CCC(CC3)C1)C(=O)C(NC(=O)Nc1cccc(C=O)c1)N=C2c1ccccc1F` (stereo not given), 237 to 242 °C.
Under `CCOC(=O)C(O)CCc1ccc(OC)c(OCc2ccccc2)c1` (stereo not given) stands 93 to 94 °C; under `CCCc1ccc(OCc2ccc(OCc3nc(-c4ccccc4)oc3C)cc2)c(CC(=O)O)c1`, 116 to 117 °C.
For `CC(CCC(=O)O)(c1ccc(OCc2ccc3ccccc3n2)cc1)c1ccc(OCc2nc3ccccc3s2)cc1` (stereo not given) the value was 68 to 72 °C.
Regarding `COc1cc(Br)c(OC)c(/C=C/C(=O)/C=C/c2cc(OC)cc(Br)c2OC)c1`, the melting point lay within 122 to 125 °C.
For `Cc1ccc2c(c1)c1c(n2Cc2ccccc2)CCCC1=O` the value was 179 to 180 °C; for `O=C(OCC=Cc1ccccc1)C(=C1NCCCS1)[N+](=O)[O-]`, 115 to 116 °C.
On to `OCC(=C(c1ccc(F)cc1)c1ccc(F)cc1)n1nnnc1-c1ccccc1`, for which the melting point fell in the range of 197 to 198 °C.
For `CCOC(=O)c1nc(-c2ccc(OC)cc2)sc1C` the value was 65 to 66 °C.
Under `COc1ccc2ncc(CO)cc2c1` stands 92 to 93 °C; under `NS(=O)(=O)c1cccc(-c2cn(-c3cc(-c4ccc(C(F)(F)F)cc4)cc(C(F)(F)F)n3)cn2)c1`, over 250 °C; under `Cc1nc(CS(C)(=O)=O)nc(OC(=O)NN2CCOCC2)c1C`, 147 °C.
For `CCCCC[C@@H](CNC(=O)Nc1c(OC(C)C)ccc2c1CCCC2)c1cccc2c1OCO2` the value was 115 °C; for `C#CCn1c(-c2ccccc2)nc(CC)c(O)c1=O`, 152 to 154 °C.
The compound `O=C1CC(c2ccc(O)cc2)Cc2ccccc21` (stereo not given) registered a melting point of 194 to 195 °C.
For `O=C1CCC(N2Cc3c(OCc4cnc5ccccc5c4)cccc3C2=O)C(=O)N1` (stereo not given) the value was 270 to 273 °C.
Under `CC1(C)C(C)(C)C1(Cl)c1ccc2c(c1)OCO2` stands 110 to 112 °C.
Under `CCCn1cc2c(C3C(=O)Nc4ccc(S(=O)(=O)N(C)C)cc43)nc(Cl)nc2n1` (stereo not given) stands over 300 °C.
As to `CCC1N=C(C(N)=O)ON1S(=O)(=O)c1ccccc1Cl` (stereo not given), the melting point was 142 °C.
Take `CC(C)(O)Cn1c(CO)nc2c(N)nc3cc(-c4ccc(Cl)c(Cl)c4)cnc3c21`: the melting point was in the range of 254 to 256 °C.
For `O=C(NO)c1ccc2c(c1)CCN(C(=O)NCc1ccccc1)C2` the value was 149 to 153 °C.
For `CCCc1cc(-c2ccc(C3COC(c4c(F)cccc4F)=N3)cc2)ccc1O` (stereo not given) the value was 210 to 215 °C; for `CC(C)Cn1c(N(C)C(=O)OC(C)(C)C)c(OCCCC(F)(F)F)c2cc(OCc3ccccc3)ccc2c1=O`, 117 to 118 °C.
Under `COc1ccc(C(=O)c2ccc3[nH]c(=O)nc(-c4cccc(Cl)c4)c3c2)cc1` stands 248 °C; under `COc1cc(S(C)(=O)=O)ccc1OCc1ccc(C2CCN(C(=O)OC(C)(C)C)CC2)cn1`, 135 to 138 °C; under `C[C@@H]1CC(=O)O[C@H](CCc2ccccc2)O1`, 49.7 to 50.9 °C.
In turn, `CC(=O)Nc1ccc(C(=O)OCC=CC(C)Oc2ccc(Oc3cnc4cc(Cl)ccc4n3)cc2)cc1` (stereo not given) showed a melting point of 62 to 68 °C.
For `NC(=O)c1sc2nc(N3CCC(NCC(O)c4ccccc4F)CC3)cc(C(F)(F)F)c2c1N` (stereo not given) the value was 192 to 194 °C.
Regarding `COc1cc2c(cc1OC)C(=O)C(c1ccc3c(c1)OCO3)CC2` (stereo not given), the melting point was 168 to 170 °C.
`Cc1cc(OC(F)(F)C(Cl)Cl)c([N+](=O)[O-])cc1S(=O)(=O)C=CC#N` gave a melting point of 109 °C.
For `CCC1(CC)OC(c2ccc(S(C)(=O)=O)cc2)=C(c2cccc(Cl)c2)C1=O` the value was 131 to 132 °C; for `CCCCOc1c(-c2ccnc3ccc(C(C)=O)cc23)cc(C(C)C)cc1C(C)C`, 133 °C.
For `COc1ccccc1Nc1c(C(=O)c2ccccc2)cnc2c(OC)cccc12` the value was 200 to 202 °C.
`CC(=O)Oc1cc(C)cc(C(=O)Cl)c1C` displayed a melting point of 52 to 54 °C.
Under `CSc1cccc(Oc2ncc(F)cc2C(=O)N[C@@H]2CCCC[C@H]2CO)c1` (relative stereo) stands 128 to 129 °C.
Under `CC1Cc2cc3c(cc2C(c2ccc([N+](=O)[O-])cc2)=NN1C1=NC(=O)CS1)OCO3` (stereo not given) stands 218 to 220 °C; under `Fc1ccc(-c2ncn(CCCN3CCOCC3)c2-c2ccncc2)cc1`, 149 to 150 °C.
Under `COc1ccc(C2=NN(C3CCN(S(=O)(=O)c4ccccc4C#N)CC3)C(=O)CC2)cc1OC` stands 158 to 160 °C; under `CCCCn1c(=O)c2cc(C(=O)OCC)cn2c2ccccc21`, 146 to 148 °C; under `CCCc1nn(C)c2c(=O)n(CCCc3ccc(OC(C)(C)C(=O)O)cc3)c(C)nc12`, 104 to 106 °C.
The compound `O=C(O)c1ccc(C2(F)CC2c2ccc(Cl)cc2)cc1` (stereo not given) registered a melting point of 204 °C.
Under `Cc1nnsc1C(=O)Nc1ccc(-n2nc(C(F)(F)F)cc2OC(F)F)cc1` stands 122 to 123 °C; under `Cc1oc2cc3sc4ccccc4c3c(-c3cc(I)c(O[C@H](C)C(=O)O)c(I)c3)c2c1C`, 218 to 219 °C.
Under `CN(c1cccc2cc(-c3ncc(COCC(=O)O)s3)[nH]c12)S(=O)(=O)c1cccs1` stands 197 to 198 °C; under `Cc1ccc2c3c(c(=O)oc2c1)CN(Cc1ccccc1)CC3`, 109 to 111 °C; under `CCCCNc1c(C(=O)OCC)c(C)nc2[nH]c(O)nc12`, 249 to 252 °C.
Under `Cc1ccc(S(=O)(=O)Nc2ccc(SC#N)cc2[N+](=O)[O-])cc1` stands 121 to 122 °C; under `Cc1c(F)c(F)c(C(N)=O)c(F)c1F`, 157 to 158 °C; under `c1ccc2nc(N3CCNCC3)c(OCCOc3cncnc3)nc2c1`, 115 to 117 °C.
Regarding `Cc1ccc(N2C(=O)c3nccnc3C2OC(=O)Oc2ccccc2)nc1` (stereo not given), the melting point is 176 °C.
Under `C=C(C)C(=O)Nc1cc(C(C)(C)C)c(O)c(C(C)(C)C)c1` stands 222 to 225 °C; under `CCOC(=O)c1c(CN(CC)CC)nc2sc(C)c(C)c2c1-c1ccc(OC)cc1`, 116 to 118 °C.
Under `C#Cc1ccnc(-c2cc(N)c(Br)cc2[N+](=O)[O-])c1` stands 226 to 228 °C; under `NC(=O)c1ccccc1-n1nnc2cccnc21`, over 340 °C.
In turn, `Cc1ccccc1Cn1cccc1C(=O)CC(=O)C(=O)O` registered a melting point of 176 to 178 °C.
For `COc1ccc(-c2[nH]nc3c2C(=O)c2c(NC(=O)Cc4ccc(N=[N+]=[N-])cc4)cccc2-3)cc1` the value was over 300 °C; for `COCc1c[nH]c2c([N+](=O)[O-])cc(C)cc2c1=O`, over 240 °C; for `CCCCCCCCCCCCc1ccc(C#Cc2c3ccccc3c(C#Cc3ccc(CCCCCCCCCCCC)cc3)c3ccccc23)cc1`, 111 to 113 °C.
For `O=c1[nH]c2cc(F)c([N+](=O)[O-])cc2o1` the value was 207 to 209 °C.
For `CCc1cn(C2CC(OC(C)=O)C(CCC(=O)Cc3c(Cl)cccc3Cl)O2)c(=O)[nH]c1=O` (stereo not given) the value was 186 °C; for `Cc1c(C=NO)c2ccccc2n1-c1ccc(O)cc1`, 171 to 173 °C.
With `COC[C@H]1CCCN1C(=O)c1cc(-c2ccccc2)c(=O)n2c1-c1ccccc1C2`, the melting point was in the range of 130 to 131 °C.
For `CCCCCCOc1cc(-c2cccc(N)c2)c(OCCCCCC)cc1-c1cccc(N)c1` the value was 105 to 106 °C.
Take `CCOC(=O)C(=CC1(OC)C=C2OCOC2=CC1)C(=O)OCC` (stereo not given): the melting point was determined as 118 °C.
`O=[N+]([O-])c1sccc1Nc1ccccc1` returned a melting point of 105 °C.
Under `Cc1ccccc1CC1CCN(C(=O)C(=O)Nc2ccc3c(c2)CC(=O)N3)CC1` stands 211 to 213 °C; under `Cc1cccc2c1NC(=O)C(NC(=O)OCc1ccccc1)N=C2c1ccccc1F` (racemic), 222 to 225 °C; under `CCc1cccc(C)c1CNc1cc(C(=O)N2CCOCC2)cc2c1nc(C)n2C`, 229 to 231 °C.
Under `CCc1ccc(O)c(C#N)c1` stands 95 to 98 °C.
For `N#Cc1cnc2sc(-c3cccc(C=O)c3)cc2c1Nc1cccc2[nH]ccc12` the value was over 245 °C; for `Cc1nc(Cl)c(C#N)cc1-c1ccccc1`, 134 to 135 °C.
On to `Nc1nc(N)c2cc(C=Cc3ccc(C(=O)O)cc3)cnc2n1`, for which the melting point is over 300 °C.
For `CC(=O)SCC(Cc1ccccc1)C(=O)Nc1ccc(C(=O)O)c(O)c1` (stereo not given) the value was 141 to 142 °C.
Under `COc1cc(C(=O)N2CCN(C(=O)c3cc(OC)c(OC)c(OC)c3)C(CNC(=O)OC(C)C)C2)cc(OC)c1OC` (stereo not given) stands 140 °C.
